Test results published in patent publication US10363257B2 (ZENITH EPIGENETICS LTD., priority 2013, dated 2019).

Assays:
[1] = biological target: T1, Brd4 bromodomain 1 (BRD4(1)) (Homo sapiens, UniProt O60885); experiment: Inhibition of tetra-acetylated histone H4 binding to Brd4 bromodomain 1 (TR-FRET); details: tetra-acetylated histone H4 peptide, first bromodomain of Brd4
T1 construct: made in house; host or cells: E. coli BL21(DE3)
Procedure, shortened: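 His-tagged BRD4(1) from E. coli (200 nM) with biotinylated tetra-acetylated H4 peptide (25-50 nM), Eu-cryptate streptavidin and XL665 anti-His, in HEPES pH 7.4/phosphate/KF buffer, 0.2% DMSO. After 2 h at room temperature, TR-FRET 665/620 nm ratio read; IC50 from dose-response curves.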

c-myc = experiment: Inhibition of c-myc expression (mRNA, real-time PCR) in MV4-11 cells; format: cell-based; details: Human AML MV4-11 cells, 3 h, cMYC mRNA
Procedure, shortened: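 MV4-11 cells treated 3 h at 37° C with increasing compound concentrations or 0.1% DMSO, in triplicate. cMYC mRNA quantified by one-step TaqMan real-time PCR, Ct normalized to internal control (Cyclophilin primers used), fold expression relative to control.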

human AML MV-4-11 cells = experiment: Inhibition of cell proliferation in MV4-11 cells (CellTiter Aqueous One); format: cell-based; details: for IC50: MV4-11, 72 h
Procedure, shortened: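 Exponentially growing MV-4-11 cells (5×10^4/well) were treated immediately with two-fold dilutions of compound from 30 μM to 0.2 μM, in triplicate, for 72 h at 37° C, 5% CO2. Viability was measured by MTS absorbance at 490 nm after 3–4 h. Proliferation relative to DMSO after blank correction gave IC50.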

hIL-6 mRNA = experiment: Inhibition of hIL-6 mRNA transcription in LPS-stimulated U937 cells; format: cell-based; details: Homo sapiens, U-937; PMA-differentiated U937 cells, 1 h pretreatment, 1 ug/mL LPS stimulation, 3 h; read-out: IL-6 activity (Inhibition of hIL-6 mRNA Transcription)
Procedure, shortened: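 U937 cells differentiated 3 days with 60 ng/mL PMA, pretreated 1 h with compound (0.1% DMSO), then stimulated with 1 ug/mL E. coli LPS for 3 h at 37 °C. hIL-6 mRNA measured by one-step TaqMan RT-qPCR, normalized to cyclophilin. Fold expression relative to control; triplicate wells.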

hIL-17 mRNA = experiment: Inhibition of hIL-17 mRNA transcription in OKT3-stimulated peripheral blood mononuclear cells; format: cell-based; details: PBMC, human peripheral blood mononuclear cells, OKT3 antibody, 6 h, read-out: IL-17 activity
Method: In this example, hIL-17 mRNA in human peripheral blood mononuclear cells was quantitated to measure the transcriptional inhibition of hIL-17 when treated with a compound of the invention.
Human peripheral blood mononuclear cells were plated (2.0×10^5 cells per well) in a 96-well plate in 45 μL OpTimizer T Cell expansion media containing 20 ng/ml IL-2 and penicillin/streptomycin. The cells were treated with the test compound (45 μL at 2× concentration), and then the cells were incubated at 37° C. for 1 h before addition of 10× stock OKT3 antibody at 10 μg/ml in media. Cells were incubated at 37° C. for 6 h before the cells were harvested. At time of harvest, cells were centrifuged (800 rpm, 5 min). Spent media was removed and cell lysis solution (70 μL) was added to the cells in each well and incubated for 5-10 min at room temperature, to allow for complete cell lysis and detachment. mRNA was then prepared using the “mRNA Catcher PLUS plate” (Invitrogen), according to the protocol supplied. After the last wash, as much wash buffer as possible was aspirated without allowing the wells to dry. Elution buffer (E3, 70 μL) was then added to each well. mRNA was then eluted by incubating the mRNA Catcher PLUS plate with Elution Buffer for 5 min at 68° C. and then immediately placing the plate on ice.
The eluted mRNA isolated was then used in a one-step quantitative RT-PCR reaction, using components of the Ultra Sense Kit together with Applied Biosystems primer-probe mixes. Real-time PCR data was analyzed, normalizing the Ct values for hIL-17 to an internal control, prior to determining the fold induction of each unknown sample, relative to the control.

SMILES | IC50 [1] | IC50 (c-myc) | IC50 (human AML MV-4-11 cells) | IC50 (hIL-6 mRNA) | IC50 (hIL-17 mRNA) | Cell Proliferation activity (human AML MV-4-11 cells; 72 h)
Cc1noc(C)c1-c1cnc2[nH]c(=O)n(Cc3ccccc3)c2c1 [Example Compound 10, 1-Benzyl-6-(3,5-dimethylisoxazol-4-yl)-1H-imidazo[4,5-b]pyridin-2(3H)-one] | ≤ 300 nM | 300 to 3000 nM | 300 to 3000 nM | ≤ 300 nM | ≤ 300 nM | 
CC(=O)Nc1cc(-c2c(C)noc2C)cc2c1nc(C)n2Cc1ccccc1 [Example Compound 64, N-(1-benzyl-6-(3,5-dimethylisoxazol-4-yl)-2-methyl-1H-benzo[d]imidazol-4-yl)acetamide] | ≤ 300 nM | ≤ 300 nM | 300 to 3000 nM | ≤ 300 nM | ≤ 300 nM | 
CCNc1nc2c(N)cc(-c3c(C)noc3C)cc2n1Cc1ccccc1 [Example Compound 19, 1-benzyl-6-(3,5-dimethylisoxazol-4-yl)-N^2-ethyl-1H-benzo[d]imidazole-2,4-diamine] | ≤ 300 nM | ≤ 300 nM | ≤ 300 nM | ≤ 300 nM | ≤ 300 nM | 
Cc1noc(C)c1-c1cc(N)c2nc(C)n(Cc3ccccc3)c2c1 [Example Compound 55, 1-benzyl-6-(3,5-dimethylisoxazol-4-yl)-2-methyl-1H-benzo[d]imidazol-4-amine] | ≤ 300 nM | ≤ 300 nM | ≤ 300 nM | ≤ 300 nM | ≤ 300 nM | 
Cc1noc(C)c1-c1cnc2[nH]c(=O)n(Cc3cccs3)c2c1 [compound 106, 6-(3,5-dimethylisoxazol-4-yl)-1-(thiophen-2-ylmethyl)-1H-imidazo[4,5-b]pyridin-2(3H)-one] | ≤ 300 nM | 300 to 3000 nM | 300 to 3000 nM | 300 to 3000 nM | 300 to 3000 nM | 
Cc1noc(C)c1-c1cnc2ncn(Cc3ccc(F)cc3)c2c1 [Example Compound 45, 4-(1-(4-fluorobenzyl)-1H-imidazo[4,5-b]pyridin-6-yl)-3,5-dimethylisoxazole] | ≤ 300 nM | 300 to 3000 nM | 300 to 3000 nM | 300 to 3000 nM | 300 to 3000 nM | 
CCNc1nc2c([N+](=O)[O-])cc(-c3c(C)noc3C)cc2n1Cc1ccccc1 [Example Compound 18, 1-benzyl-6-(3,5-dimethylisoxazol-4-yl)-N-ethyl-4-nitro-1H-benzo[d]imidazol-2-amine] | ≤ 300 nM | ≤ 300 nM | ≤ 300 nM | 300 to 3000 nM | 300 to 3000 nM | 
Cc1noc(C)c1-c1cc(N)c2c(c1)ncn2Cc1ccccc1 [Example Compound 8, 1-Benzyl-5-(3,5-dimethylisoxazol-4-yl)-1H-benzo[d]imidazol-7-amine] | ≤ 300 nM | 300 to 3000 nM | 300 to 3000 nM | 300 to 3000 nM | 300 to 3000 nM | 
Cc1noc(C)c1-c1cnc2ncn(C(C)c3ccccc3)c2c1 (stereo not drawn) [Example Compound 30] | ≤ 300 nM | 300 to 3000 nM | 300 to 3000 nM | 300 to 3000 nM | 300 to 3000 nM | 
Cc1noc(C)c1-c1cnc2c(C)nn(Cc3ccc(F)cc3)c2c1 [Example Compound 53, 4-(1-(4-fluorobenzyl)-3-methyl-1H-pyrazolo[4,3-b]pyridin-6-yl)-3,5-dimethylisoxazole] | ≤ 300 nM |  |  | 300 to 3000 nM | 3000 to 30000 nM | Not active
Cc1noc(C)c1-c1cnc2nc(C)n(Cc3ccc(C#N)s3)c2c1 [compound 78, 5-((6-(3,5-dimethylisoxazol-4-yl)-2-methyl-1H-imidazo[4,5-b]pyridin-1-yl)methyl)thiophene-2-carbonitrile] | ≤ 300 nM | 3000 to 30000 nM | 3000 to 30000 nM | 300 to 3000 nM |  | 
Cc1noc(C)c1-c1cnc2[nH]c(=O)n(CC3CC3)c2c1 [compound 118, 1-(cyclopropylmethyl)-6-(3,5-dimethylisoxazol-4-yl)-1H-imidazo[4,5-b]pyridin-2(3H)-one] | ≤ 300 nM | 300 to 3000 nM | 300 to 3000 nM | 300 to 3000 nM |  | 
Cc1noc(C)c1-c1cc(F)c2nc(C)n(Cc3ccccc3)c2c1 [compound 158, 4-(1-benzyl-4-fluoro-2-methyl-1H-benzo[d]imidazol-6-yl)-3,5-dimethylisoxazole] | ≤ 300 nM | 300 to 3000 nM | 300 to 3000 nM | 300 to 3000 nM |  | 
Cc1noc(C)c1-c1cc(N)c2[nH]c(=O)n(C(C)c3ccccc3)c2c1 (stereo not drawn) [compound 115, 4-amino-6-(3,5-dimethylisoxazol-4-yl)-1-(1-phenylethyl)-1H-benzo[d]imidazol-2(3H)-one] | ≤ 300 nM | ≤ 300 nM | ≤ 300 nM | ≤ 300 nM |  | 
Cc1noc(C)c1-c1cnc2nc(N)n(Cc3ccccc3)c2c1 [compound 216, 1-benzyl-6-(3,5-dimethylisoxazol-4-yl)-1H-imidazo[4,5-b]pyridin-2-amine] | ≤ 300 nM | 300 to 3000 nM | ≤ 300 nM | ≤ 300 nM |  | 
Cc1noc(C)c1-c1cnc2nc(C)n(Cc3ccc(Cl)c(Cl)c3)c2c1 [compound 95, 4-(1-(3,4-dichlorobenzyl)-2-methyl-1H-imidazo[4,5-b]pyridin-6-yl)-3,5-dimethylisoxazole] | ≤ 300 nM | 300 to 3000 nM | 300 to 3000 nM | 300 to 3000 nM |  | 
Cc1noc(C)c1-c1cc(N)c2ccn(Cc3ccccc3)c2n1 [compound 73, 1-benzyl-6-(3,5-dimethylisoxazol-4-yl)-1H-pyrrolo[2,3-b]pyridin-4-amine] | 300 to 3000 nM | 3000 to 30000 nM | 3000 to 30000 nM | 300 to 3000 nM |  | 
Cc1noc(C)c1-c1cnc2c(c1)ncn2Cc1ccccn1 [Example Compound 46, 3,5-dimethyl-4-(3-(pyridin-2-ylmethyl)-3H-imidazo[4,5-b]pyridin-6-yl)isoxazole] | 300 to 3000 nM | 3000 to 30000 nM | 3000 to 30000 nM | 3000 to 30000 nM |  | 
Cc1noc(C)c1-c1cnc2nc(C)n(Cc3cccs3)c2c1 [compound 69, 3,5-dimethyl-4-(2-methyl-1-(thiophen-2-ylmethyl)-1H-imidazo[4,5-b]pyridin-6-yl)isoxazole] | ≤ 300 nM | 300 to 3000 nM | 300 to 3000 nM | 300 to 3000 nM |  | 
Cc1noc(C)c1-c1cnc2nc(C)n(Cc3ccc(Cl)s3)c2c1 [compound 77, 4-(1-((5-chlorothiophen-2-yl)methyl)-2-methyl-1H-imidazo[4,5-b]pyridin-6-yl)-3,5-dimethylisoxazole] | ≤ 300 nM | 300 to 3000 nM | 300 to 3000 nM | 300 to 3000 nM |  | 
Cc1noc(C)c1-c1cnc2nc(NCc3ccccc3)n(Cc3ccccc3)c2c1 [compound 153, N,1-dibenzyl-6-(3,5-dimethylisoxazol-4-yl)-1H-imidazo[4,5-b]pyridin-2-amine] | ≤ 300 nM | ≤ 300 nM | ≤ 300 nM | ≤ 300 nM |  | 
Cc1noc(C)c1-c1cnc2ccn(Cc3ccc(F)cc3)c2c1 [Example Compound 48, 4-(1-(4-fluorobenzyl)-1H-pyrrolo[3,2-b]pyridin-6-yl)-3,5-dimethylisoxazole] | ≤ 300 nM | 300 to 3000 nM | 3000 to 30000 nM | 300 to 3000 nM |  | 
Cc1noc(C)c1-c1cc(CN)c2[nH]c(=O)n(Cc3ccccc3)c2c1 [Example Compound 22, 4-(aminomethyl)-1-benzyl-6-(3,5-dimethylisoxazol-4-yl)-1H-benzo[d]imidazol-2(3H)-one] | 300 to 3000 nM | 300 to 3000 nM | 300 to 3000 nM | 300 to 3000 nM |  | 
Cc1noc(C)c1-c1cnc2c(CN(C)C)cn(Cc3ccccc3)c2c1 [compound 72, 1-(1-benzyl-6-(3,5-dimethylisoxazol-4-yl)-1H-pyrrolo[3,2-b]pyridin-3-yl)-N,N-dimethylmethanamine] | 300 to 3000 nM | 3000 to 30000 nM | 3000 to 30000 nM | 3000 to 30000 nM |  | 
